Structures are written as SMILES. Residues, ends and D or L forms follow the SMILES beside them. *: point of attachment. NHtBu = CC(C)(C)N*

One series can be described thus: method code SF-AS, from DOI: 10.1016/0021-9673(94)89049-8. Conditions: pH 7.0.
`Nc1nc(Cl)nc2c1ncn2[C@H]1C[C@H](O)[C@@H](CO)O1` returned a logD of 0.03. Turning to `Nc1ncnc2c1ncn2[C@@H]1O[C@H](CCl)[C@@H](O)[C@H]1O`, the logD is -0.06. In turn, `Nc1nc(F)nc2c1ncn2[C@@H]1O[C@H](CO)[C@@H](O)[C@H]1O` showed a logD of -0.8. Regarding `Nc1nc(Cl)nc2c1ncn2C1OC(CO)C(O)C1O` (stereo not given), the logD is -0.37.

Assay in a further series: not given
Details: not given
In turn, `COc1ccc(-c2cc(C#N)c(N3CCOCC3)nc2C)cc1` returned a logP of 4.4.

Regarding `COc1ccc(-c2cc(C#N)c(Cl)nc2C)cc1`, the log partition coefficient (logP) was found to be 3.38. In the case of `Cc1nc(Cl)c(C#N)cc1-c1ccccc1`, the logP came to 3.24. This logP and that of the compound before are within 0.2 log units of each other. As for `Cc1nc(N2CCOCC2)c(C#N)cc1-c1ccccc1`, the logP came to 3.65.

Assay in the next series: not given
Details: not given
The source holds these as a separate data set.
The compound `Clc1ccccc1-c1cccc(Cl)c1Cl` returned a logP of 5.31.

Regarding `Clc1cccc(-c2cccc(Cl)c2Cl)c1`, the logP came out at 5.57. Turning to `Clc1cccc(-c2ccccc2Cl)c1`, the logP stood at 5.02. Compound `Clc1ccc(-c2c(Cl)ccc(Cl)c2Cl)c(Cl)c1` had a lipophilicity (logP) of 6.31.

A short description of the next series: method code SF-AS, from DOI: 10.1007/bf01648987.
Details: not given
For `CC(=O)Oc1cccc2ccccc12`, the logP amounted to 2.78. The compound `CC(=O)OC(OC(C)=O)c1ccccc1` gave a logP of 1.62. On to `CCN(CCOC(C)=O)c1ccccc1`, for which the log partition coefficient (logP) was 2.04. `CC(=O)N(CCCl)c1ccc(CC(=O)O)cc1` displayed a logP of 1.2.

The nature of another series: method code SF-RC, from DOI: 10.1023/a:1015846100305, PMID: 1788157. Conditions: pH 7.3.
`CC(=O)N[C@@H](C)C(=O)N[C@@H](C)C(=O)N[C@@H](C)C(=O)NC(C)(C)C` returned a pH-dependent lipophilicity (logD) of -0.51. `CC(=O)NC(C)C(=O)NC(Cc1c[nH]cn1)C(=O)NC(C)C(=O)NC(C)(C)C` (stereo not drawn) (Ac-Ala-His-Ala-NHtBu; configuration not given here) showed a logD of -0.48. `CC(=O)NC(C)C(=O)N1CCCC1C(=O)NC(C)C(=O)NC(C)(C)C` (stereo not drawn) (Ac-Ala-Pro-Ala-NHtBu; configuration not given here) showed a pH-dependent lipophilicity (logD) of -0.39.

A further series can be described thus: method code SF-RC, from DOI: 10.1021/jm00238a003, PMID: 1120999. Conditions: pH 7.0.
As to `Nc1ccn(C2OC(COC(=O)C3CCCCC3)C(O)C2O)c(=O)n1` (stereo not given), the logD worked out at 0.8. Regarding `CC(C)C(=O)OCC1OC(n2ccc(N)nc2=O)C(O)C1O` (stereo not given), the logD is 0.3. Turning to `CCCCCCCC(=O)OC[C@H]1O[C@@H](n2ccc(N)nc2=O)[C@@H](O)[C@@H]1O`, the logD turned out to be 1.6.

In turn, `CC(C)(C)C(=O)OC[C@H]1O[C@@H](n2ccc(N)nc2=O)[C@@H](O)[C@@H]1O` displayed a logD of 0.1.

Assay in another series: not given
Details: not given
This is another data set of the same source.
Regarding `COc1ccc(CCN2CCC(Nc3nc4ccccc4n3Cc3ccc(F)cc3)CC2)cc1`, the log partition coefficient (logP) amounted to 5.7.

Take `CNC1CCC(c2ccc(Cl)c(Cl)c2)c2ccccc21` (stereo not given): the logP worked out at 4.3. In turn, `NS(=O)(=O)c1cc2c(cc1Cl)N=C(CSCc1ccccc1)NS2(=O)=O` gave a log partition coefficient (logP) of 1.73. Same read-out and setting: next, `CCCCOc1ccc(OCCCN2CCOCC2)cc1`: 3.56.

Assay in another series: not given
Details: not given
The source holds these as a separate data set.
As to `CC1c2nc3ccccc3c(=O)n2C(C)CN1C` (stereo not given), the log partition coefficient (logP) came out at 0.44. On to `CCN1CC(C)n2c(nc3ccccc3c2=O)C1C` (stereo not given), for which the lipophilicity (logP) turned out to be 1.58.

`CCCN1CC(C)n2c(nc3ccccc3c2=O)C1C` (stereo not given) registered a logP of 1.45. In turn, `CCCN1CCn2c(nc3ccccc3c2=O)C1C` (stereo not given) came in with a lipophilicity (logP) of 1.07.

Assay in a further series: not given
Details: not given
The source holds these as a separate data set.
Compound `O=C1CN=C(c2cccc(Cl)c2)c2ccc(Br)cc2N1` displayed a lipophilicity (logP) of 3.63.

Consider `O=C1CN=C(c2ccc(Cl)cc2)c2cc(Br)ccc2N1`, for which the log partition coefficient (logP) came to 3.78. On the same count and under the same terms, in the case of `O=C1CN=C(c2ccc(Br)cc2)c2cc(Br)ccc2N1` it was 4.08. On to `O=C1CN=C(c2ccccc2Br)c2cc(Br)ccc2N1`, for which the lipophilicity (logP) turned out to be 3.3.

A further series in a line: method code SF-HPLC, from DOI: 10.1002/ps.2780310207.
Details: not given
For `CC(C)(Cc1ccccn1)c1ccc(F)cc1`, the log partition coefficient (logP) is 2.97. Take `CCCC(Cn1cncn1)c1ccc(F)cc1` (stereo not given): the log partition coefficient (logP) was 2.01. `Fc1ccc(C2(Cn3cncn3)CC2)cc1` displayed a log partition coefficient (logP) of 1.54. Same read-out and setting: next, `CCCC(Cc1ccccn1)c1ccc(F)cc1` (stereo not given): 2.61.

Another series can be described thus: method code SF-AS, from DOI: 10.1135/cccc19881862. Particulars: pH 3.4.
For `O=C(O)C(OCc1ccc(Cl)cc1)c1ccccc1` (stereo not given), the pH-dependent lipophilicity (logD) came out at 2.6.

The series is the same for the next values; noted with them: pH 3.5.
In turn, `CC(CC(=O)c1ccc(-c2ccc(-c3ccc(F)cc3F)cc2)cc1)C(=O)O` (stereo not given) came in with a logD of 3.78.

For `CC(CC(=O)O)CC(=O)c1ccc(-c2ccc(-c3ccccc3)cc2)cc1` (stereo not given), the logD was 3.82.

In turn, `CC(CC(=O)c1ccc(-c2ccc(-c3ccccc3)cc2)cc1)C(=O)O` (stereo not given) came in with a logD of 3.4.

Assay in the next series: not given
Details: not given
This is another data set of the same source.
`NC(=O)CCN1CCc2cccc(Cl)c2CC1` returned a logP of 1.64. With `NC(=O)NCCN1CCc2cccc(Cl)c2CC1`, the logP is 2.07. In the case of `C=CCN1CCc2cccc(Cl)c2CC1`, the logP stood at 3.3. Compound `CN1CCc2cccc(Cl)c2CC1` had a logP of 2.92.

Another series can be described thus: method code SF-GLC, from DOI: 10.1016/0048-3575(76)90072-9.
Details: not given
In turn, `CCOC(=O)CN(C(=O)CCl)c1c(CC)cccc1CC` gave a logP of 3.17. In turn, `CCOC(=O)CN(C(=O)CCl)c1ccccc1OC` showed a logP of 1.78. On to `CCOC(=O)CN(C(=O)CCl)c1ccccc1Cl`, for which the logP stood at 2.3. Compound `CCOC(=O)CN(C(=O)CCl)c1ccccc1CC` yielded a log partition coefficient (logP) of 2.57.

Assay in a further series: not given
Details: not given
This is another data set of the same source.
`O=C(Oc1ccc([N+](=O)[O-])cc1)C1OC(O)C(O)C(O)C1O` (stereo not given) displayed a logP of -0.45. Take `O=C(Oc1ccc2ccccc2c1)C1OC(O)C(O)C(O)C1O` (stereo not given): the logP was 1.39. `O=C(Oc1ccc(Cl)cc1)C1OC(O)C(O)C(O)C1O` (stereo not given) gave a log partition coefficient (logP) of 0.45. Take `O=C(Oc1ccc(F)cc1)C1OC(O)C(O)C(O)C1O` (stereo not given): the logP was -0.42.

A further series can be described thus: method code SF-RC, from DOI: 10.1016/s0969-8043(00)00269-4, PMID: 11200881. Particulars: pH 7.4.
The compound `CN1CCc2cc(Cl)c(O)cc2[C@@H](c2ccccc2)C1` came in with a log distribution coefficient (logD) of 2.87. Compound `COc1ccc(C2CNC(=O)C2)cc1OC1CCCC1` (stereo not given) gave a pH-dependent lipophilicity (logD) of 2.17. Take `CN1CCc2c(cc(O)c(O)c2Cl)C(c2ccccc2)C1` (stereo not given): the log distribution coefficient (logD) came to 1.4. Turning to `CCOC(=O)c1ncn2c1CN(C)C(=O)c1cc(F)ccc1-2`, the pH-dependent lipophilicity (logD) is 1.26.

Another series is described as follows: method code SF, from PMID: 718082.
Details: not given
Regarding `CNC(=O)c1c(I)c(NC(C)=O)c(I)c(C(=O)O)c1I`, the logP was -1.15. In turn, `CNC(=O)c1c(I)c(NC(C)=O)c(I)c(OCC2OC(O)C(O)C(O)C2O)c1I` (stereo not given) yielded a logP of -1.26.

In turn, `CC(=O)Nc1c(I)c(NC(C)=O)c(I)c(C(=O)O)c1I` had a lipophilicity (logP) of -1.05. `OC[C@H]1O[C@@H](Oc2cc(O[C@@H]3O[C@H](CO)[C@@H](O)[C@H](O)[C@H]3O)c(I)c(O[C@@H]3O[C@H](CO)[C@@H](O)[C@H](O)[C@H]3O)c2I)[C@H](O)[C@@H](O)[C@@H]1O` yielded a logP of -2.22.

The nature of the next series: method code SF-AS, from PMID: 578762. Particulars: pH 5.9.
On to `CCOC(=O)C=C1NC(=O)C(N2CCCCC2)S1` (stereo in doubt), for which the pH-dependent lipophilicity (logD) is 2.3.

The same series, now with this note: pH 7.4.
For the compound `CCOC(=O)/C=C1/SC(N2CCCCC2)C(=O)N1CC` (stereo not given), the logD worked out at 2.65. For the compound `CCOC(=O)/C=C1\SC(N(CC)CC)C(=O)N1C` (stereo not given), the log distribution coefficient (logD) came out at 2.2. `CCCN1C(=O)C(N2CCCCC2)S/C1=C\C(=O)OCC` (stereo not given) showed a log distribution coefficient (logD) of 2.93.

The nature of another series: method code SF-AS, from DOI: 10.1080/10826076.2011.619030.
Details: not given
In turn, `O=C(OCc1ccccc1)OC1C(CO)OC(n2ccc(=O)[nH]c2=O)C1OC(=O)OCc1ccccc1` (stereo not given) had a logP of 2.96.

In turn, `CC1(C)OC2C(CO)OC(n3ccc(=O)n(C(=O)c4ccccc4)c3=O)C2O1` (stereo not given) yielded a logP of 0.95. Take `CC1(C)OC2C(CO)OC(n3ccc(=O)[nH]c3=O)C2O1` (stereo not given): the lipophilicity (logP) was -0.47. Compound `CC1(C)OC2C(CO)OC(n3ccc(=O)n(Cc4ccccc4)c3=O)C2O1` (stereo not given) had a logP of 1.82.

Assay in another series: not given
Details: not given
The source holds these as a separate data set.
Compound `c1nnn(C23CC4CC(CC(C4)C2)C3)n1` registered a lipophilicity (logP) of 2.95. Compound `c1ccc(C23CC4CC(CC(C4)C2)C3)cc1` displayed a logP of 5.55. Consider `c1ccc2c(c1)nnn2C12CC3CC1CCC2C3` (stereo not given), for which the logP came to 3.52. The same measure, in the same setting: next, `c1ccc2nn(C34CC5CC(CC(C5)C3)C4)cc2c1`: 3.68.

The record behind these values is the SangsterLogP compilation.
